Measurements published in US7674813B2, “Heterocyclic sulfonamide inhibitors of beta amyloid production containing an azole” (Wyeth, priority 2004, dated 2010).
pEC50: −log10 of the molar value.

Tests used:
[1] = system: amyloid precursor protein (APP) proteolysis; assay: Repressor Release Assay (RRA); type: cell-based; set-up: key to RRA data (footnote symbols): **: Inactive due to toxicity; however, this compound, at 3-4 μM, reduces Aβ levels by 50% in CHO cells transfected with human APP695 as measured by ELISA without exhibiting toxicity.; ***: Inactive; however, this compound, at 1-4 μM, reduces Aβ levels by 50% in CHO cells transfected with human APP695 as measured by ELISA without exhibiting toxicity; conditions: transfected CHO-K1 cells; for fold induction at 20 µg/mL: Cricetulus griseus, CHO-K1, all compounds tested at 20 μg/mL, luciferase activity over diluent control, read-out: RRA data (Fold increase of APPI)
Description: The beta amyloid inhibitory activity of many of the compounds of the present invention has been determined using the Repressor Release Assay (RRA). See, Table 3 below. A compound is considered active in RRA if it leads to at least a 1.5 fold increase in luciferase activity at 20 μg/mL and is non-toxic.
The compound is considered active in RRA if it leads to at least a 1.5 fold increase in APPI as measured by an increase in luciferase activity at 20 μg/mL and is non-toxic. Shuey, D. J., Sheiffele, P., Jones, D., Cockett, M. I., and Quinet, E. M. (1999) Repressor release: a useful tool for monitoring amyloid precursor protein (APP) proteolysis in mammalian cells. Society for Neuroscience Abstracts, Vol. 25, 29th Annual Meeting of Society for Neuroscience, Miami Beach, Fla., Oct. 23-28, 1999.
CHO—K1 cells are cultured in whole DMEM media (DMEM—High Glucose with 10% fetal bovine serum, 1% Non-essential Amino Acids, and 1% Penicillin-Streptomycin) at 37° C. with 5% CO2. Two million cells are plated into 10-cm dishes 24 hrs prior to transfection.
Transient transfections are completed as recommended by Gibco BRL using their Lipofectamine Plus system. First, 6 μg of pRSVO-luc and 6 μg of APP-lacI construct DNA are added to 460 μL Opti-Mem transfection media and incubated with 30 μL Plus reagent for 15 minutes. Then, a lipid mixture of 40 μL Lipofectamine reagent and 460 μL Opti-Mem transfection media is incubated with the DNA-Plus reagent mixture for 15 minutes. During the DNA-lipid incubation, the CHO—K1 cells are washed once and covered in 5.0 mL DMEM media without Penicillin-Streptomycin. The DNA-lipid preparation is then layered onto these cells and incubated at 37° C. overnight.
One and one half million transfected cells per well (100 μL total volume) are plated into sterile, opaque Packard 96-well Cultur-Plates in clear DMEM whole media (DMEM—without phenol red) and incubated at 37° C. with 5% CO2 for 3-5 hours.
Compounds are diluted using two different protocols; one protocol is used for compounds supplied neat (weighed powder in vial) and the other protocol is used for compounds supplied in solution (20 mM in DMSO in 96-well plates). For both protocols, 25 mM Hepes and 25 mM Hepes/1% DMSO are prepared fresh to be used as diluent. The Hepes/DMSO is used as the diluent control on all experimental plates.
The following Table 1 depicts the steps for compound dilution (the last step is the addition of compound to cells/media in tissue culture plate):
Because some compounds arrive in 96-well format at 20 mM, the following Table 2 represents the protocol for their dilution (an average molecular weight of these compounds was used to calculate these dilutions and as above, the last step is the addition of compound to cells/media in tissue culture plate):
Once compounds are diluted, they are applied in duplicate on cells in tissue culture plates (prepared above). Cells are incubated with compound at 37° C. with 5% CO2 for an additional 36-48 hours.
Luciferase assays (LucLite reagent, Packard) are performed and are read on a Packard TopCount instrument. Media is removed from each 96-well plate and replaced with 100 μL PBS per well (with Mg^2+ and Ca^2+). An equal volume (100 μL) of the LucLite lysis/substrate buffer is added to each well and the plates are sealed and mixed in the dark on a rotary shaker for 15-30 minutes at room temperature. Luciferase readings are then taken on the TopCount instrument. Measurements are expressed as relative light units (RLU) and are calculated and analyzed in MS Excel as follows:
Fold Increase: amount of luciferase activity (measured in relative light units) over diluent control.
SEM: standard error of the mean for fold increase.
Activity: A compound is considered active if it results in at least a 1.5 fold increase in luciferase activity at 20 μg/mL.
Toxicity: determined by loss of signal (<0.75 fold increase).

beta amyloid 42 = assay: Aβ40/42 ELISA Assay (Aβ42); type: cell-based; conditions: CHO cells carrying the APP-REP-NL plasmid, 22 hours, sandwich ELISA; for pEC50: Cricetulus griseus
Description: (§1) Compounds are diluted from DMSO stocks to 2 μM and below in a cell culture medium. Compounds are then applied to CHO cells carrying the APP-REP-NL plasmid [Sudhir et. al, J. Biolog. Chem. 267:25602-25608 (1992)] for a period of 22 hours. After the conditioning period, medium is collected, diluted in assay buffer containing protein, and samples, controls, and synthetic peptide standards are incubated on a prepared ELISA plate. Using a sandwich ELISA with antibodies specifically directed against the carboxyl terminus of beta amyloid 40 or 42 (analogous to the method reported by Haugabook et al., J. Neurosci. Methods 108:171-179 (2001) but using goat anti-mouse IgG1 (source: Southern Biotech) as the anchor, 6E10 as the capture antibody (Source: SENETEK), rabbit antiAβ40 and antiAβ42 (source: QCB) and APL-donkey anti-rabbit IgG (H+L, source: Southern Biotech) as the detection antibody), the effect of the compound treatment on the cellular production of extracellular beta amyloid is quantified. Cells treated with compound are subsequently incubated in cell culture medium containing MTS-formazan. After a short incubation period, MTS/medium containing plates are read in a spectrophotometer to determine the extent to which compound toxicity affected the cell's metabolism and ability to synthesize beta amyloid.
(§2) A. Test Samples: compound samples are supplied as 20 mM stock solutions in a 100% DMSO solution.
(§3) B. APP-REP-NL cells: Qualified cell lines are carried from week to week using 1:100 dilutions and are cultured in DMEM supplemented with 1× antibiotic/antimycotic, 200 ug/ml of G418 antibiotic, and 10% certified fetal calf serum. Cells are also banked in liquid nitrogen. Periodically, beta amyloid production is assessed, and cells are either kept in culture or replaced with progenitors at full expression.
(§4) C. Antibodies: From certified lots that have already been qualified in this assay. Antibodies are stored in small frozen aliquots at −80° C. that are thawed and used.
(§5) A compound is considered active if it has an EC50 for Aβ40 reduction of <100 μM and no toxicity at doses in the vicinity of the EC50.

beta amyloid 40 = assay: Aβ40/42 ELISA Assay (Aβ40); type: cell-based; conditions: Cricetulus griseus; CHO cells carrying the APP-REP-NL plasmid, 22 hours, sandwich ELISA
Description: as §1, §2, §3, §4, §5

SMILES	fold induction at 20 µg/mL [1]	pEC50 (beta amyloid 42)	pEC50 (beta amyloid 40)	Effect on Aβ42 production (beta amyloid 42)	RRA data (footnote symbols) ([1]; tested at 20 μg/mL)	melting point [°C]
Cc1cccc(-n2nccc2C(NS(=O)(=O)c2ccc(Cl)s2)C(C)C)c1 (centres unmarked) [Example 16, 5-Chloro-N-{2-methyl-1-[1-(3-methylphenyl)-1H-pyrazol-5-yl]propyl}thiophene-2-sulfonamide]	4	5.36	5.46			
CCC(CC)C(NS(=O)(=O)c1ccc(Cl)s1)c1ccnn1-c1ccc(C(F)(F)F)cc1 (centres unmarked) [Example 18, 5-Chloro-N-(2-ethyl-1-{1-[4-(trifluoromethyl)phenyl]-1H-pyrazol-5-yl}butyl)thiophene-2-sulfonamide]	2.3	4.97	5.23			
CCC(CC)C(NS(=O)(=O)c1ccc(Cl)s1)c1ncnn1Cc1ccc(OC(F)(F)F)cc1 (centres unmarked) [Example 20, 5-Chloro-N-(2-ethyl-1-{1-[4-(trifluoromethoxy)benzyl]-1H-1,2,4-triazol-5-yl}butyl)thiophene-2-sulfonamide]	9.8	5.37	5.62			
CCC(CC)C(NS(=O)(=O)c1ccc(Cl)s1)c1ncnn1Cc1ccccc1 (centres unmarked) [Example 22, N-[1-(1-Benzyl-1H-1,2,4-triazol-5-yl)-2-ethylbutyl]-5-chlorothiophene-2-sulfonamide]	7.2	5.82	5.82			
CCC(CC)C(NS(=O)(=O)c1ccc(Cl)s1)c1nccn1Cc1ccc(OC)cc1 (centres unmarked) [Example 29, 5-Chloro-N-{2-ethyl-1-[1-(4-methoxybenzyl)-1H-imidazol-2-yl]butyl}thiophene-2-sulfonamide]	1.9	4.28	4.29			
CCC(CC)C(NS(=O)(=O)c1ccc(Cl)s1)c1nccn1Cc1ccc(O)cc1 (centres unmarked) [Example 30, 5-Chloro-N-{2-ethyl-1-[1-(4-hydroxybenzyl)-1H-imidazol-2-yl]butyl}thiophene-2-sulfonamide]	8.6	5.01	5.28			
COc1ccc(Cn2cccc2C(NS(=O)(=O)c2ccc(Cl)s2)C(C)C)cc1 (centres unmarked) [Example 32, 5-Chloro-N-{1-[1-(4-methoxybenzyl)-1H-pyrrol-2-yl]-2-methylpropyl}thiophene-2-sulfonamide]	6.6		4.88	increase		
CCC(CC)C(NS(=O)(=O)c1ccc(Cl)s1)c1ccnn1OCc1ccccc1 (centres unmarked) [Example 33, N-{1-[1-(Benzyloxy)-1H-pyrazol-5-yl]-2-ethylbutyl}-5-chlorothiophene-2-sulfonamide]		5.37	5.59		**	
O=S(=O)(NC(c1ccc(F)cc1)c1ccnn1-c1ccc(F)cc1)c1ccc(Cl)s1 (centres unmarked) [Example 34, 5-Chloro-N-{(4-fluorophenyl) [1-(4-fluorophenyl)-1H-pyrazol-5-yl]methyl}thiophene-2-sulfonamide]		5.00	5.24			159 to 160
CCC(CC)C(NS(=O)(=O)c1ccc(Cl)cc1)c1ccnn1-c1ccccc1 (centres unmarked) [Example 36, 4-Chloro-N-[2-ethyl-1-(1-phenyl-1H-pyrazol-5-yl)butyl]benzenesulfonamide]			4.64	increase		135 to 136.4
CCC(CC)C(NS(=O)(=O)c1ccc(C#N)cc1)c1ccnn1-c1ccccc1 (centres unmarked) [Example 37, 4-Cyano-N-[2-ethyl-1-(1-phenyl-1H-pyrazol-5-yl)butyl]benzenesulfonamide]			4.07	increase		134.6 to 136.6
CCC(CC)C(NS(=O)(=O)c1cc(Cl)c(Cl)s1)c1ccnn1-c1ccccc1 (centres unmarked) [Example 38, 4,5-Dichloro-N-[2-ethyl-1-(1-phenyl-1H-pyrazol-5-yl)butyl]thiophene-2-sulfonamide]			4.88	increase		116 to 119.6
CCC(CC)C(NS(=O)(=O)c1ccc(Cl)c(Cl)c1)c1ccnn1-c1ccccc1 (centres unmarked) [Example 39, 3,4-Dichloro-N-[2-ethyl-1-(1-phenyl-1H-pyrazol-5-yl)butyl]benzenesulfonamide]			4.59	increase		56 to 66
CCC(CC)C(NS(=O)(=O)c1ccc(Br)s1)c1ccnn1-c1ccccc1 (centres unmarked) [Example 40, 5-Bromo-N-[2-ethyl-1-(1-phenyl-1H-pyrazol-5-yl)butyl]thiophene-2-sulfonamide]		5.12	5.39			120 to 120.7
CCC(CC)C(c1ccnn1-c1ccccc1)N(C)S(=O)(=O)c1ccc(C#N)cc1 (centres unmarked) [Example 43, 4-Cyano-N-[2-ethyl-1-(1-phenyl-1H-pyrazol-5-yl)butyl]-N-methylbenzenesulfonamide]			4.32	increase		37.8 to 54
CCC(CC)C(c1ccnn1-c1ccccc1)N(C)S(=O)(=O)c1ccc(Cl)cc1 (centres unmarked) [Example 44, 4-Chloro-N-[2-ethyl-1-(1-phenyl-1H-pyrazol-5-yl)butyl]-N-methylbenzenesulfonamide]			4.45			86.5 to 89
CCC(CC)C(c1ccnn1-c1ccccc1)N(C)S(=O)(=O)c1cc(Cl)c(Cl)s1 (centres unmarked) [Example 45, 4,5-Dichloro-N-[2-ethyl-1-(1-phenyl-1H-pyrazol-5-yl)butyl]-N-methylthiophene-2-sulfonamide]			4.47	increase		99 to 100.4
